Experimental data: article PMC13499021, “Cellular Assays for Dynamic Quantification of Deubiquitinase Activity and Inhibition” (Journal of molecular biology, 2023)
Several values for one entry are separate records, joined by “and”; a condition that tells them apart may be missing. Identical values can stand only once. Like-named read-outs stand apart in the source and are kept apart here. Where a SMILES comes first, the peptide text is derived from it. The star is where a group is joined. Cbz = O=C(OCc1ccccc1)*

How the values were obtained:
[1] = molecular target: R-EGFP reporter (enhanced green fluorescent protein with an N-terminal arginine, made as the Ub-R-EGFP fusion)
[2] = test system: SARS2-PL^pro; assay type: cell-based
[3] = test system: SARS2 PL^pro; conditions: read-out: inhibitory concentrations (IC50); cited from earlier work
[4] = test system: homologous enzyme (PL^pro) from MERS; conditions: cited from earlier work
[5] = test system: homologous enzyme (PL^pro) from NL63; conditions: cited from earlier work
[6] = test system: proteasome; assay type: cell-based
[7] = test system: GFPNb^WT-USP7; assay type: cell-based
[8] = test system: GFPNb^R35Q-USP7; assay type: cell-based
[9] = test system: GFPNb^E103Q-USP7; assay type: cell-based
[10] = test system: GFPNb^R35Q-USP7; assay type: cell-based; conditions: read-out: cellular IC50
[11] = test system: USP7; conditions: cited from earlier work
[12] = test system: MM.1S cells; conditions: read-out: IC50, block of proliferation; cited from earlier work
[13] = molecular target: T1, GFPNb^R35Q-USP7 (Homo sapiens, UniProt Q93009); assay type: cell-based
T1 sequence (Q93009 with tags, fused parts or gaps limits assumed, stated change not applied): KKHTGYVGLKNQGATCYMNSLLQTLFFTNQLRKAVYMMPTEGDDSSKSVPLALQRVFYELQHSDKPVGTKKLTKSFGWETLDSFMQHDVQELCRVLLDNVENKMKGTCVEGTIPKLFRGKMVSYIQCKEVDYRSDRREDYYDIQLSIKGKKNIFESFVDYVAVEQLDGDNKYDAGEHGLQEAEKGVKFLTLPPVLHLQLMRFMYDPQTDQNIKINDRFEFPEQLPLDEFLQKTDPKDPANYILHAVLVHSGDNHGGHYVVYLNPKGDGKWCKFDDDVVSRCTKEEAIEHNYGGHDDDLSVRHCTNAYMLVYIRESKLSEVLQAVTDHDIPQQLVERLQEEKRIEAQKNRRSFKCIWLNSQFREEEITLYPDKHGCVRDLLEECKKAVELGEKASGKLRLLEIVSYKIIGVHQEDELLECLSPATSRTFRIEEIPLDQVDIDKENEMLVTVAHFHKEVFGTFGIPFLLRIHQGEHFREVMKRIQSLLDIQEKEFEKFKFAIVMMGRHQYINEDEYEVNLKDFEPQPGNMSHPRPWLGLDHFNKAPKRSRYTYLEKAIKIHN

[14] = test system: GFPNb^R35Q-USP28; assay type: cell-based
[15] = test system: KF LSCC cells; design: method as in PMID 34636321; conditions: cited from earlier work
[16] = molecular target: T1, GFPNb^R35Q-USP7; assay type: cell-based; remark: listed apart in the source
[17] = test system: purified USP7; conditions: purified USP7 and Ub-AMC substrate; reported; cited from earlier work
[18] = 10 μM compound for 16 h, USP7 fused to WT GFP nanobody

Work on GFPNb E103Q-mCherry (VHH) yielded a relative stabilization of EGFP in 293T-Ub-R-C3 cells (flow cytometry), WT nanobody-mCherry normalized to 1 (fold decrease against the WT nanobody) [1] of 100.
In the case of GRL0617, the “start of time dependent decrease in EGFP signal post-treatment” value [2] is listed as 2 h, the IC50 [3] is listed as 2100 to 2300 nM and the “activity against homologous enzyme” value [4] is listed as “inactive”. For the same molecule, the “activity against homologous enzyme” value [5] was “inactive”.
With `CC(C)C[C@@H](C=O)NC(=O)[C@H](CC(C)C)NC(=O)[C@H](CC(C)C)NC(=O)OCc1ccccc1` [MG132] (Cbz-Leu-Leu-Leu-aldehyde) the “elevation of EGFP level over baseline” value [6] was “over 50 fold”.
With `O=C(C[C@@H](C(F)F)n1ccc(F)n1)N1CCC(O)(Cn2cnc3c(cnn3-c3ccc(F)cc3)c2=O)CC1` [FT671] the “change in EGFP fluorescence levels” value [7] was “weak (if any) decrease”, the “change in EGFP levels” value [8] was “substantial decrease” and the “change in EGFP levels” value [9] was “substantial decrease”. The IC50 [10] was 14 nM, the IC50 [11] was 52 nM and the IC50 [12] was 33 nM.
Molecule GFPNb E103Q-mCherry-USP7 fusion has a relative USP7 activity (EGFP stabilization, flow cytometry) in transfected 293T-Ub-R-C3 cells, against the WT nanobody fusion (fold less than the WT Nb fusion) [1] of 3.
GFPNb R35Q-mCherry-USP7 fusion gave a relative USP7 activity (EGFP stabilization, flow cytometry) in transfected 293T-Ub-R-C3 cells, against the WT nanobody fusion (fold less than the WT Nb fusion) [1] of 2.
GFPNb R35Q-mCherry (VHH) showed a relative stabilization of EGFP in 293T-Ub-R-C3 cells (flow cytometry), WT nanobody-mCherry normalized to 1 (fold decrease against the WT nanobody) [1] of 50.
For `Cc1ccc2c(N)c(C(=O)N[C@H]3CCc4cc(N5CC6CCC(C5)N6)ccc4C3)sc2n1` [FT206], the “inhibition” value [13] was “no inhibition”, the “dose-dependence of EGFP degradation rate” value [14] was “little dose-dependence” and the “inhibition” value [14] was “potent inhibition”. For the same molecule, the “rate of degradation of the EGFP reporter” value [14] was “fastest degradation”, the IC50 ([14]; read-out: cellular IC50) was 104 nM and ~104 nM and the “proliferation of KF LSCC cells” value [15] was “inhibit proliferation”.
For XL177A, the “change in EGFP fluorescence levels” value [7, 18] was “weak (if any) decrease”, the “change in EGFP levels” value [16] was “substantial decrease” and the “change in EGFP levels” value [9] was “substantial decrease”. The IC50 ([13]; read-out: cellular IC50) was 192 nM and the IC50 [17] was 0.34 nM.
For `CC(=O)c1cc([N+](=O)[O-])c(Sc2ccc(F)cc2F)s1` [P22077], the “change in EGFP fluorescence levels” value [7, 18] was “no inhibitory activity” and the “change in EGFP levels” value [9] was “no inhibitory activity”.
